According to US20250368632A1, “CR[…] AND CONJUGATES THEREOF” (Universitat Bielefeld, priority 2021, published 2025):

Legend:
KB-V1 cells = assay: Resazurin cell viability (cytotoxicity) assay, 72 h incubation, KB-V1 cells (selected with vinblastine); assay type: cell-based; settings: resazurin fluorescence, drug concentration at which vitality is 50%, read-out: IC50 values of cryptophycin compounds, KB-V1 cells
Procedure: (§1) The KB-3-1 and KB—V1 cells were cultivated as a monolayer in DMEM (Dulbecco's modified Eagle medium) with glucose (4.5 g L^−1), L-glutamine, sodium pyruvate and phenol red, supplemented with 10% (KB-3-1) and 15% (KB—V1) fetal bovine serum. 50 μg mL^−1 gentamycin is added for the KB—V1 cells. The cells were maintained at 37° C. and 5.3% CO2/humidified air. KB—V1 cells were continuously selected during cultivation with vinblastine sulfate (150 nM). On the day before the test, the cells (70% confluence) were detached with trypsin/ethylenediaminetetraacetic acid (EDTA) solution (0.05%/0.02% in DPBS) and plated in sterile 96-well plates in a density of 10,000 cells in 100 μL medium per well. The dilution series of the compounds were prepared from stock solutions in DMSO of concentrations of […]. The stock solutions were diluted with culture medium (15% FBS [KB—V1]; 10% FBS [KB-3-1]) at least 50 times. Some culture medium was added to the wells to adjust the volume of the wells to the wanted dilution factor. The dilution prepared from stock solution was added to the wells. Each concentration was tested in six replicates. Dilution series were prepared by pipetting liquid from well to well. The control contained the same concentration of DMSO as the first dilution. After incubation for 72 h at 37° C. and 5.3% CO2/humidified air, 30 μL of an aqueous resazurin solution (175 μM) was added to each well. The cells were incubated at the same conditions for 6 h. Subsequently, the fluorescence was measured. The excitation was effected at a wavelength of 530 nm, whereas the emission was recorded at a wavelength of 588 nm. The IC50 values were calculated as a sigmoidal dose response curve using GraphPad Prism 4.03. The IC50 values equal the drug concentrations, at which vitality is 50%.

KB-3-1 cells = assay: Resazurin cell viability (cytotoxicity) assay, 72 h incubation, KB-3-1 cells; assay type: cell-based; settings: resazurin fluorescence, drug concentration at which vitality is 50%, read-out: IC50 values of cryptophycin compounds, KB-3-1 cells
Procedure: as §1

Substance | IC50 (KB-V1 cells) [nM] | IC50 (KB-3-1 cells) [nM]
Cryptophycin [Compound H8, Cryptophycin [uD-Ser]] | 1100 | 0.12
Cryptophycin-[uD-Dab(Alloc)] [Compound C5] | 400 | 0.22
Cryptophycin-[uD-Dab-Me2] [Compound C7] | 210 | 0.038
Cryptophycin-[uD-Dab] [Compound C6] | > 50000 | 1
Cryptophycin-[uD-HSe(AII)] [Compound Y7] | 93 | 0.018
Cryptophycin-[uD-HSe] [Compound Y8] | > 500 | 0.8
Cryptophycin-[uD-Lys(Alloc)] [Compound G5] | > 500 | 4200
Cryptophycin-[uD-Lys] [Compound G6] | > 500 | 60000
Cryptophycin-[uD-Met] [Compound T7] | 49 | 0.02
Cryptophycin-[uD-Ser(AII)] [Compound H7] | 29 | 0.011
Cryptophycin-[uD-Thr(Allyl)] [Compound Z6] | > 1000 | 1.5
Cryptophycin-[uD-Thr] [Compound Z7] | 300 | 0.026
Cryptophycin-uD[Dab(Alloc,Me)] [Compound B10] | 90 | 0.021
Cryptophycin-uD[Dap(AII, Me)] [Compound C10] | 0.87 | 0.021
Cryptophycin-uD[Dap(Alloc,Me)] [Compound P10] | 890 | 0.045
Cryptophycin-uD[Dap(Me)] [Compound P11] | 21 | 0.0087
